Experimental data taken from patent US20250344693A1, “HERBICIDE SUSPENSION CONCENTRATES AND METHOD FOR THEIR PREPARATION” (NUFARM AUSTRALIA LIMITED, priority 2022, published 2025).

Assay: Hot solution temperature: homogeneous solution of active with excipient or second active
Assay type: physicochemical
Procedure: Numerous materials may act to form solutions of agrochemicals at elevated temperature. The solubility of MCPA, 2,4-D) and mecoprop with a range of common excipients was assessed at elevated temperature. To establish the melting behaviour of the individual actives, each active (1.25 g) was weighed into a 40 mL vial and heated gradually using a hotplate and Asynt heating insert until full melted, and the melting range was noted. […] To establish hot solvent behaviour, a range of excipients were weighed into 40 mL vials (0.676 g) with each chosen active (1.25 g). The mixtures were then heated gradually until a fully homogeneous solution was observed and the temperature was noted as described above. Additionally, the potential for agrochemicals to act as solvents for a second agrochemical at elevated temperature was also studied by combining the active ingredients in a ratio of 1.85:1 active:active ‘solvent’ following the same procedure as described above. For example, in a mixture where the first active was MCPA (1.25 g) and the second was mecoprop (0.676 g) both actives were added to a 40 mL vial and heated following the procedure detailed above. Where a homogeneous phase is observed below the measured melting point of the study active ingredient, a hot solution is considered to have been formed and the excipient is deemed to act as a solvent at elevated temperature.
Where the “solvent” is listed as “None”, the temperature stated represents the formation of a homogeneous melt.

For `O=C(O)COc1ccc(Cl)cc1Cl` [2,4-D, 2,4-dichlorophenoxyacetic acid], the “Solution temp range (° C.)” value (2nd active Dichloroprop-P as solvent, ratio 1.85:1) was 130-132 °C, the “Solution temp range (° C.)” value (2nd active MCPA as solvent, ratio 1.85:1) was 140-142 °C and the “Solution temp range (° C.)” value (2nd active Mecoprop as solvent, ratio 1.85:1 active:active solvent) was 130-131 °C. For the same molecule, the “temperature range where homogeneous solutions formed (° C.)” value (solvent 1,2-Propanediol) was 110-112 °C, the “temperature range where homogeneous solutions formed (° C.)” value (solvent Altox 4894) was 121-125 °C and the “temperature range where homogeneous solutions formed (° C.)” value (solvent Altox 4912) was 138-140 °C. For the same molecule, the “temperature range where homogeneous solutions formed (° C.)” value (solvent Altox 4913) was 116-120 °C, the “temperature range where homogeneous solutions formed (° C.)” value (solvent Atlas G5000) was 129-131 °C and the “temperature range where homogeneous solutions formed (° C.)” value (solvent Atlox 4915) was 134-137 °C. For the same molecule, the “temperature range where homogeneous solutions formed (° C.)” value (solvent Atlox 4916) was 140-141 °C, the “temperature range where homogeneous solutions formed (° C.)” value (solvent Atplus 245) was 123-126 °C and the “temperature range where homogeneous solutions formed (° C.)” value (solvent Atplus PFA) was 127-130 °C. The “temperature range where homogeneous solutions formed (° C.)” value (solvent Atplus UEP) was 132-135 °C, the “temperature range where homogeneous solutions formed (° C.)” value (solvent Crodamol AB) was 136-138 °C and the “temperature range where homogeneous solutions formed (° C.)” value (solvent Crodamol GTCC) was 138-140 °C. The “temperature range where homogeneous solutions formed (° C.)” value (solvent Dipropylene glycol dimethyl ether) was 114-116 °C, the “temperature range where homogeneous solutions formed (° C.)” value (solvent Genapol X020) was 118-121 °C and the “temperature range where homogeneous solutions formed (° C.)” value (solvent Genapol X050) was 120-123 °C. The “temperature range where homogeneous solutions formed (° C.)” value (solvent Genapol X060) was 118-122 °C, the “temperature range where homogeneous solutions formed (° C.)” value (solvent Genapol X080) was 118-121 °C and the “temperature range where homogeneous solutions formed (° C.)” value (solvent Glycerol, 1.25 g active, 0.676 g excipient) was 116-118 °C. The “temperature range where homogeneous solutions formed (° C.)” value (solvent Multiwet MO85) was 140-143 °C, the “temperature range where homogeneous solutions formed (° C.)” value (solvent PEG 400) was 122-123 °C and the “temperature range where homogeneous solutions formed (° C.)” value (solvent PEG 1000) was 124-126 °C. For the same molecule, the “temperature range where homogeneous solutions formed (° C.)” value (solvent PEG 4000) was 134-136 °C, the “temperature range where homogeneous solutions formed (° C.)” value (solvent Pluronic F68) was 137-140 °C and the “temperature range where homogeneous solutions formed (° C.)” value (solvent Pluronic F127) was 137-140 °C. The “temperature range where homogeneous solutions formed (° C.)” value (solvent Propylene glycol) was 110-112 °C, the “temperature range where homogeneous solutions formed (° C.)” value (solvent Synperonic PE/L31) was 129-130 °C and the “temperature range where homogeneous solutions formed (° C.)” value (solvent Synperonic PE/L64) was 132-135 °C. The “temperature range where homogeneous solutions formed (° C.)” value (solvent Synprolam 35X15) was 123-126 °C, the “temperature range where homogeneous solutions formed (° C.)” value (solvent Tween 22) was 120-124 °C and the “temperature range where homogeneous solutions formed (° C.)” value (solvent Tween 23) was 120-124 °C. For the same molecule, the “temperature range where homogeneous solutions formed (° C.)” value (solvent Tween 24) was 120-124 °C.
